Data on 23 molecules can be found in patent publication US20260028340A1 (Supernus Pharmaceuticals, Inc., priority 2023, published 2026).

Data set [1] can be described thus: Pharmacokinetic data in CD-1 mice after oral administration. It is filed as in vivo. The following applies: mouse, serum, Table 7: CD-1 mice, nominal dose 5.10 mg/kg Cmpd. A or 6.57-8.40 mg/kg DV salt, analyte: dosed derivative (DV).
Assay in data set [2]: as above
In kind it is in vivo. The following applies: 10 mg/kg molar equivalent to Cmpd. A (nominal), serum; for AUC(0-t) / Cmax / Tmax / AUC(0-inf) / half-life: mouse, analyte: dosed derivative (DV). The method, then: Pharmacokinetic (PK) data was generated using twelve CD-1 mice treated with oral administration of the compound with a dose volume of 10 mg/kg (a molar equivalent to 5-(4-chlorophenyl)-2,3-dihydroimidazo[1,2-b]isoindol-5-ol (“Compound A,” “Cmpd. A,” or “A”)), and a nominal strength of 1 mg/mL. The serum was analyzed in triplicate with 200 mM K2EDTA anticoagulant.

As a reminder, the AUC(0-inf) is total exposure, with the tail of the curve extrapolated. By AUC(0-t) is commonly meant exposure summed from dosing to a finite time, without extrapolation to infinity. A word on the Cmax: it is the highest concentration seen after dosing. As a reminder, the Tmax is the time from dosing to the highest level. In general, half-life refers to the time needed for the level to fall by half in the phase considered. In the case of `FC(F)(F)c1ccc(COC2(c3ccc(Cl)cc3)c3ccccc3C3=NCCN32)cc1` (centres unmarked) [Compound I-14, 5-(4-chlorophenyl)-5-((4-(trifluoromethyl)benzyl)oxy)-2,5-dihydro-3H-imidazo[2,1-a]isoindole], in data set [1], the area under the curve AUC(0-inf) stood at 215 ng·h/mL, the area under the curve AUC(0-t) came to 183 ng·h/mL, the Cmax came to 56.1 ng/mL and the time of peak concentration (Tmax) came to 30 min. Also, the half-life in data set [1] is 163 min.
For the molecule `CC(C)C(NC(=O)OC(C)(C)C)C(=O)N1CCN=C1c1ccccc1C(=O)c1ccc(Cl)cc1` (centres unmarked), in data set [2], the “PK parameters / level of analyte A (Cmpd. A) after dosing the derivative” value (“PK parameters / level” for short) was “NC (BLQ at all the time points)”, the AUC(0-t) worked out at 56.5 ng·h/mL, the maximum concentration (Cmax) amounted to 61.2 ng/mL and the time of peak concentration (Tmax) turned out to be 15 min.
As to `O=C(c1ccc(Cl)cc1)c1ccccc1C1=NCCN1C(=O)c1ccccc1` [II-1, (2-(1-benzoyl-4,5-dihydro-1H-imidazol-2-yl)phenyl) (4-chlorophenyl) methanone], in data set [2], the AUC(0-inf) is 21.8 ng·h/mL, the area under the curve AUC(0-t) worked out at 19.8 ng·h/mL, the Cmax is 43 ng/mL and the Tmax turned out to be 15 min. In data set [2], the half-life was 100 min.
As for `COCCOC1(c2ccc(Cl)cc2)c2ccccc2C2=NCCN21` (centres unmarked) [Compound I-4, 5-(4-chlorophenyl)-5-(2-methoxyethoxy)-2,5-dihydro-3H-imidazo[2,1-a]isoindole], in data set [2], the total exposure AUC(0-inf) was determined as 586 ng·h/mL, the area under the curve AUC(0-t) is 568 ng·h/mL, the Cmax turned out to be 475 ng/mL and the time of peak concentration (Tmax) amounted to 15 min. In addition, the half-life in data set [2] is 108 min.
As to `COc1ccc(COC2(c3ccc(Cl)cc3)c3ccccc3C3=NCCN32)cc1OC` (centres unmarked) [Compound I-15, 5-(4-chlorophenyl)-5-((3,4-dimethoxybenzyl)oxy)-2,5-dihydro-3H-imidazo[2,1-a]isoindole], in data set [1], the area under the curve AUC(0-inf) is 16 ng·h/mL, the exposure AUC(0-t) was 12.7 ng·h/mL, the Cmax turned out to be 17.8 ng/mL and the Tmax came to 20 min. For the same molecule, in data set [1], the half-life was 29.8 min.
On to `FC(F)(F)c1ccc(/C=C/COC2(c3ccc(Cl)cc3)c3ccccc3C3=NCCN32)cc1` (centres unmarked) [Compound I-18, (E)-5-(4-chlorophenyl)-5-((3-(4-(trifluoromethyl)phenyl)allyl)oxy)-2,5-dihydro-3H-imidazo[2,1-a]isoindole], for which, in data set [1], the AUC(0-inf) was determined as 792 ng·h/mL, the AUC(0-t) amounted to 677 ng·h/mL, the Cmax amounted to 187 ng/mL and the Tmax was 30 min. In addition, the half-life in data set [1] was 237 min.
In the case of `Clc1ccc(C2(OCC3OCCO3)c3ccccc3C3=NCCN32)cc1` (centres unmarked) [Compound I-19, 5-((1,3-dioxolan-2-yl)methoxy)-5-(4-chlorophenyl)-2,5-dihydro-3H-imidazo[2,1-a]isoindole], in data set [1], the AUC(0-t) is 2.04 ng·h/mL, the Cmax was determined as 4.27 ng/mL and the time of peak concentration (Tmax) was determined as 20 min.
As for `CC(C)=CCC/C(C)=C/CC/C(C)=C/COC1(c2ccc(Cl)cc2)c2ccccc2C2=NCCN21` (centres unmarked) [Compound I-13, 5-(4-chlorophenyl)-5-(((2E,6E)-3,7,11-trimethyldodeca-2,6,10-trien-1-yl)oxy)-2,5-dihydro-3H-imidazo[2,1-a]isoindole], in data set [2], the AUC(0-t) was 337 ng·h/mL, the Cmax was determined as 201 ng/mL and the time of peak concentration (Tmax) worked out at 30 min.
Consider `CC(C)COC1(c2ccc(Cl)cc2)c2ccccc2C2=NCCN21` (centres unmarked) [Compound I-10, 5-(4-chlorophenyl)-5-isobutoxy-2,5-dihydro-3H-imidazo[2,1-a]isoindole], for which, in data set [2], the area under the curve AUC(0-inf) was 112 ng·h/mL, the exposure AUC(0-t) worked out at 94.6 ng·h/mL, the highest concentration (Cmax) stood at 82.5 ng/mL and the time of peak concentration (Tmax) was 15 min. Also, in data set [2], the half-life is 97.8 min.
On to `COc1ccc(COC2(c3ccc(Cl)cc3)c3ccccc3C3=NCCN32)cc1` (centres unmarked) [Compound I-2, 5-(4-chlorophenyl)-5-((4-methoxybenzyl)oxy)-2,5-dihydro-3H-imidazo[2,1-a]isoindole], for which, in data set [2], the AUC(0-inf) came to 268 ng·h/mL, the AUC(0-t) came to 260 ng·h/mL, the Cmax is 234 ng/mL and the time of peak concentration (Tmax) worked out at 15 min. Also, the half-life in data set [2] is 108 min.
The like results for `Clc1ccc(C2(OCc3ccccc3)c3ccccc3C3=NCCN32)cc1` (centres unmarked) [Compound I-1, 5-(benzyloxy)-5-(4-chlorophenyl)-2,5-dihydro-3H-imidazo[2,1-a]isoindole] were, in that order, 141 ng·h/mL, 137 ng·h/mL, 68.2 ng/mL, 15 min and 96 min.
For `COC1(c2ccc(Cl)cc2)c2ccccc2C2=NCCN21` (centres unmarked) [Compound I-6, 5-(4-chlorophenyl)-5-methoxy-2,5-dihydro-3H-imidazo[2,1-a]isoindole], in data set [2], the area under the curve AUC(0-inf) was found to be 66.6 ng·h/mL, the AUC(0-t) was 64.7 ng·h/mL, the maximum concentration (Cmax) was found to be 72 ng/mL and the Tmax is 30 min. Moreover, the half-life in data set [2] was 51 min.
For `O=C(c1ccc(Cl)cc1)c1ccccc1C1=NCCN1C(=O)c1ccc2c(c1)OCO2` [II-4, benzo[d][1.3]dioxol-5-yl(2-(2-(4-chlorobenzoyl)phenyl)-4,5-dihydro-1H-imidazol-1-yl) methanone], in data set [2], the “PK parameters / level” value was “NC (BLQ at all the time points)”, the AUC(0-inf) came to 238 ng·h/mL, the exposure AUC(0-t) is 236 ng·h/mL and the Cmax was 50.3 ng/mL. Also, in data set [2], the Tmax is 15 min and the half-life is 72 min.
Consider `Clc1ccc(C2(OCc3ccc4c(c3)OCO4)c3ccccc3C3=NCCN32)cc1` (centres unmarked) [Compound I-7, 5-(benzo[d][1.3]dioxol-5-ylmethoxy)-5-(4-chlorophenyl)-2,5-dihydro-3H-imidazo[2,1-a]isoindole], for which, in data set [2], the area under the curve AUC(0-inf) was found to be 358 ng·h/mL, the AUC(0-t) was found to be 307 ng·h/mL, the Cmax was 211 ng/mL and the Tmax amounted to 15 min. Also, the half-life in data set [2] was 85.2 min.
For the molecule `CC(C)=CCOC1(c2ccc(Cl)cc2)c2ccccc2C2=NCCN21` (centres unmarked) [Compound I-9, 5-(4-chlorophenyl)-5-((3-methylbut-2-en-1-yl)oxy)-2,5-dihydro-3H-imidazo[2,1-a]isoindole], in data set [2], the AUC(0-inf) turned out to be 59.8 ng·h/mL, the exposure AUC(0-t) was found to be 55.1 ng·h/mL, the Cmax turned out to be 124 ng/mL and the Tmax was 15 min. In data set [2], the half-life is 85.2 min.
With `CC(C)(C(=O)N1CCN=C1c1ccccc1C(=O)c1ccc(Cl)cc1)C(=O)N1CCN=C1c1ccccc1C(=O)c1ccc(Cl)cc1` [III-1, 1,3-bis(2-(2-(4-chlorobenzoyl)phenyl)-4,5-dihydro-1H-imidazol-1-yl)-2,2-dimethylpropane-1,3-dione], in data set [2], the “PK parameters / level” value was “NC (BLQ at all the time points)”, the area under the curve AUC(0-inf) came to 369 ng·h/mL, the AUC(0-t) was found to be 366 ng·h/mL and the Cmax was 238 ng/mL. Moreover, in data set [2], the time to peak (Tmax) came to 15 min and the half-life is 72 min.
Take `COc1ccc(C(=O)N2CCN=C2c2ccccc2C(=O)c2ccc(Cl)cc2)cc1` [II-2, (2-(2-(4-chlorobenzoyl)phenyl)-4,5-dihydro-1H-imidazol-1-yl) (4-methoxyphenyl) methanone]: in data set [2], the AUC(0-inf) was determined as 624 ng·h/mL, the AUC(0-t) is 611 ng·h/mL, the maximum concentration (Cmax) was 170 ng/mL and the Tmax amounted to 30 min. Besides, the half-life in data set [2] is 81.6 min.
In the case of `CC(C)=CCC/C(C)=C/COC1(c2ccc(Cl)cc2)c2ccccc2C2=NCCN21` (centres unmarked) [Compound I-11, (E)-5-(4-chlorophenyl)-5-((3,7-dimethylocta-2,6-dien-1-yl)oxy)-2,5-dihydro-3H-imidazo[2,1-a]isoindole], in data set [2], the total exposure AUC(0-inf) came out at 44 ng·h/mL, the AUC(0-t) was determined as 39.7 ng·h/mL, the Cmax was 27.7 ng/mL and the Tmax was 15 min. For the same molecule, the half-life in data set [2] is 69.6 min.
Take `CCOC1(c2ccc(Cl)cc2)c2ccccc2C2=NCCN21` (centres unmarked) [Compound I-8, 5-(4-chlorophenyl)-5-ethoxy-2,5-dihydro-3H-imidazo[2,1-a]isoindole]: in data set [2], the total exposure AUC(0-inf) worked out at 72.4 ng·h/mL, the exposure AUC(0-t) is 48.5 ng·h/mL, the Cmax was found to be 32 ng/mL and the Tmax came to 30 min. For the same molecule, in data set [2], the half-life was 127 min.
As for `Cc1ccc(C(=O)N2CCN=C2c2ccccc2C(=O)c2ccc(Cl)cc2)cc1` [II-3, (2-(2-(4-chlorobenzoyl)phenyl)-4,5-dihydro-1H-imidazol-1-yl) (p-tolyl) methanone], in data set [2], the total exposure AUC(0-inf) was found to be 182 ng·h/mL, the AUC(0-t) came out at 163 ng·h/mL, the maximum concentration (Cmax) is 81.6 ng/mL and the time to peak (Tmax) was determined as 15 min. The half-life in data set [2] was 132 min.
As for `C=CCOC1(c2ccc(Cl)cc2)c2ccccc2C2=NCCN21` (centres unmarked) [Compound I-3, 5-(allyloxy)-5-(4-chlorophenyl)-2,5-dihydro-3H-imidazo[2,1-a]isoindole], in data set [2], the AUC(0-inf) was 88.9 ng·h/mL, the exposure AUC(0-t) was 73.7 ng·h/mL, the Cmax came to 52.9 ng/mL and the Tmax was 30 min. Also, the half-life in data set [2] was 102 min.
Consider `COCCOCCOCCOC1(c2ccc(Cl)cc2)c2ccccc2C2=NCCN21` (centres unmarked) [Compound I-12, 5-(4-chlorophenyl)-5-(2-(2-(2-methoxyethoxy)ethoxy)ethoxy)-2,5-dihydro-3H-imidazo[2,1-a]isoindole], for which, in data set [2], the AUC(0-t) was 68.9 ng·h/mL, the Cmax came out at 67.6 ng/mL and the time of peak concentration (Tmax) was 30 min.
For `CN1CCN(C(=O)N2CCN=C2c2ccccc2C(=O)c2ccc(Cl)cc2)CC1` [II-6, (2-(2-(4-chlorobenzoyl)phenyl)-4,5-dihydro-1H-imidazol-1-yl) (4-methylpiperazin-1-yl) methanone], in data set [2], the total exposure AUC(0-inf) is 548 ng·h/mL, the AUC(0-t) was 531 ng·h/mL, the Cmax is 752 ng/mL and the Tmax turned out to be 15 min. Also, the half-life in data set [2] was 51 min.
